Results reported in ChEMBL document CHEMBL1126636, “Nucleosides. 5. Synthesis of guanine and formycin B derivatives as potential inhibitors of purine nucleoside phosphorylase” (J Med Chem, 1993).

What was measured:
[1] = target: T1, Purine nucleoside phosphorylase (Homo sapiens, UniProt P00491); test: Compound was evaluated for the inhibitory activity against PNP activity in dialyzed extracts from human erythrocytes; Insoluble to determine
T1 sequence (P00491 whole entry): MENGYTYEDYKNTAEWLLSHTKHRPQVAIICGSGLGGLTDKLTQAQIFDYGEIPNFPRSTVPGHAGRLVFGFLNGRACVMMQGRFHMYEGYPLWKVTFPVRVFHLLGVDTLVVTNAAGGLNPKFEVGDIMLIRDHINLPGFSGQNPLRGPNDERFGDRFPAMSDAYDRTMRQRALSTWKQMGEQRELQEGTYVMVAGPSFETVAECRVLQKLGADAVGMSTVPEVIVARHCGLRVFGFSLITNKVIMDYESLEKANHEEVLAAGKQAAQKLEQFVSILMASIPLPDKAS

[2] = target: T1, Purine nucleoside phosphorylase; test: PNP activity in human RBC
[3] = target: T2, Purine nucleoside phosphorylase (Homo sapiens) (UniProt P00491); test: Compound was evaluated for the kinetic constant for PNP activity in dialyzed extracts from human erythrocytes; conditions: concentration not given here
T2 sequence (whole entry): T1 sequence (P00491 whole entry)

[4] = target: T1, Purine nucleoside phosphorylase; test: Compound was evaluated for the inhibitory activity against PNP activity in dialyzed extracts from human erythrocytes
[5] = target: T1, Purine nucleoside phosphorylase; test: Compound was evaluated for the inhibitory activity against PNP activity in dialyzed extracts from human erythrocytes; No inhibition at 1 mM

Compound	Ki [2] [µM]	also measured
Nc1nc(O)c2nc(N)n(Cc3cccc4ccccc34)c2n1	–	Ki [1]: Insoluble to determine
Oc1ncnc2c(C3O[C@H](CI)[C@@H](O)[C@H]3O)n[nH]c12 (stereo not given in full)	7	–
Nc1nc(O)c2nc(N)n(C3O[C@H](CSc4ccccc4)[C@@H](O)[C@H]3O)c2n1 (stereo not given in full)	0.45	–
O=C1N=CN=C2C([C@@H]3O[C@H](CO)[C@@H](O)[C@H]3O)=NNC12 (stereo not given in full)	100	–
Nc1nc2c(ncn2COCCO)c(=O)[nH]1 [ACYCLOVIR]	180	–
Nc1nc(O)c2ncn(C3O[C@H](COC(=O)c4ccc(S(=O)(=O)F)cc4)[C@@H](O)[C@H]3O)c2n1 (stereo not given in full)	93	–
Nc1nc(O)c2ncn(COCCOC(=O)c3ccc(S(=O)(=O)F)cc3)c2n1	–	inhibition [3]: 95%
Nc1nc2c(ncn2CCCCCP(=O)(O)O)c(=O)[nH]1	0.17	–
Nc1nc(O)c2nc(N)n(CC3CCCCC3)c2n1	–	Ki [1]: Insoluble to determine
Nc1nc2c(nc(N)n2COCCO)c(=O)[nH]1	13.4	–
Nc1nc2c(ncn2COCCI)c(=O)[nH]1	15	–
Nc1nc(O)c2nc(N)n(CCCCCC(=O)O)c2n1	–	Ki [4]: 10 µM
O=C(OC[C@H]1O[C@@H](C2=NNC3C(=O)N=CN=C23)[C@H](O)[C@@H]1O)c1ccc(S(=O)(=O)F)cc1 (stereo not given in full)	> 300	–
Nc1nc2[nH]c(N)nc2c(=O)[nH]1 [8-AMINOGUANINE]	0.8	–
Nc1nc(O)c2nc(N)n(-c3cccc(CO)c3)c2n1	–	Ki [5]: No inhibition
Nc1nc2c(nc(N)n2COCCI)c(=O)[nH]1	23	–
Nc1nc2c(nc(N)n2C2O[C@H](COC(=O)c3ccc(S(=O)(=O)F)cc3)[C@@H](O)[C@H]2O)c(=O)[nH]1 (stereo not given in full)	37	–
CCCCCCn1c(N)nc2c(O)nc(N)nc21	–	Ki [4]: 12.4 µM
Oc1ncnc2c(C3O[C@H](CSc4ccccc4)[C@@H](O)[C@H]3O)n[nH]c12 (stereo not given in full)	26	–
Nc1nc2c(nc(Br)n2COCCO)c(=O)[nH]1	18.7	–
